Assay: Storage stability of DNT-Oxal crystal forms (polymorphic form by XRD)
Assay type: physicochemical
Settings: stored at room temperature for 11 months; for Crystal form after the storage: crystal form before vs after the storage, oxalate
Procedure: Crystal forms of DNT-Oxal were stored at room temperature for 11 months. […] The forms of DNT-Oxal were identified using a Scintag X-ray powder diffractometer model X'TRA with a Cu-tube solid state detector. The sample holder was a round standard aluminum sample holder with rough zero background quartz plate with a cavity having a diameter of 25 mm and a depth of 0.5 mm. The scanning parameters were as follows: a range of 2° to 40° 2θ; a continuous scan mode, and a step size of 0.05° at a rate of 3°/minute.

Row | SMILES | Polymorphic stability on storage | Crystal form after the storage
1 | CN(C)CC[C@H](Oc1cccc2ccccc12)c1cccs1.O=C(O)C(=O)O [Form III, (S)-(+)-N,N-Dimethyl-3-(1-naphthalenyloxy)-3-(2-thienyl)propanamine oxalate] | polymorphically stable | Form III
2 | CN(C)CC[C@H](Oc1cccc2ccccc12)c1cccs1.O=C(O)C(=O)O [Form II, (S)-(+)-N,N-Dimethyl-3-(1-naphthalenyloxy)-3-(2-thienyl)propanamine oxalate] | polymorphically stable | Form II
